Laboratory results: patent US7709516B2, “Helix 12 directed non-steroidal antiandrogens” (Endorecherche, Inc., priority 2005, dated 2010)
Like-named read-outs stand apart in the source and are kept apart here.

How the values were obtained:
[1] = system: Shionogi mouse mammary carcinoma cells; assay: Androgenic/antiandrogenic activity: inhibition of DHT-stimulated Shionogi cell number; format: cell-based; settings: DHT-stimulated Shionogi cell number, agonist reported when compound stimulates the cells
Human Androgen Receptor = molecular target: T1, Human Androgen Receptor (Homo sapiens, UniProt P10275); assay: Androgen receptor binding assay ([3H]R1881, HAP) in cytosol of HEK-293 cells transfected with hAR; settings: Table 3; relative to R1881 = 100, transfected cells
T1 sequence (P10275 1-920): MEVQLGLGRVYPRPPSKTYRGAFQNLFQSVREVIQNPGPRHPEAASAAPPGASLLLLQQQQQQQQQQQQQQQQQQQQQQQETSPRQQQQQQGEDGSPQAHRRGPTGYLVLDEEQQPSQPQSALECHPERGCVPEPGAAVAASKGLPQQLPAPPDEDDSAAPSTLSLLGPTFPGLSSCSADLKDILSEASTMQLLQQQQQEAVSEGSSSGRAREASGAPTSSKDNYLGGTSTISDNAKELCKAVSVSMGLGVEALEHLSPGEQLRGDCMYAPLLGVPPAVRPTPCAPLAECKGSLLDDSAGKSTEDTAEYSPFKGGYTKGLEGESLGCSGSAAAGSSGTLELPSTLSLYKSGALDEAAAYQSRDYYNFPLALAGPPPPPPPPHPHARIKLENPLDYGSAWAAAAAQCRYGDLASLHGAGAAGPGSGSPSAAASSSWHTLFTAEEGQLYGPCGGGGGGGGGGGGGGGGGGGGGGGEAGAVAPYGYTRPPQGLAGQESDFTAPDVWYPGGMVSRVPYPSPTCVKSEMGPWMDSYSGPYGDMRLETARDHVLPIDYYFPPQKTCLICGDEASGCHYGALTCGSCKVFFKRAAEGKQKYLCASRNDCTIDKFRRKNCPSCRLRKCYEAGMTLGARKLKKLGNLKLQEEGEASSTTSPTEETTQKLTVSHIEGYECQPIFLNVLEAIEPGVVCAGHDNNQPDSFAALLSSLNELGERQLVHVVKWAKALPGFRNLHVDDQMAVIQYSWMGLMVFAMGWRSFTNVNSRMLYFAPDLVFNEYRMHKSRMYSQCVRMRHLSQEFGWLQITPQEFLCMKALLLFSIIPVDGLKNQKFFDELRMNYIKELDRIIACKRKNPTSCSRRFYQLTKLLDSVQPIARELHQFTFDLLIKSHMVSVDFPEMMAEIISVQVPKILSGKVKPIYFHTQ

[2] = system: rat prostate, seminal vesicle, levator ani muscle; assay: Systemic antiandrogenic activity in orchidectomized immature male rats with DHT implant; format: in vivo; settings: Table 3, rat +DHT, 0.5 mg/animal daily 7 days
[3] = system: rat prostate, seminal vesicle, levator ani muscle; assay: Systemic androgenic activity in orchidectomized immature male rats; format: in vivo; settings: for change in vivo at 0.2 mg: 168 h, 0.2 mg/animal daily 7 days
Excerpt: Column 7 represents the % of androgenic efficacy in rat prostate, expressed in percentage of stimulation:
W is the weight of the prostate.
Column 8 represents the % of androgenic efficacy in rat seminal vesicle, expressed in percentage of stimulation:
W is the weight of the seminal vesicle.
Column 9 represents the % of androgenic efficacy in rat levator ani muscle, expressed in percentage of stimulation: […]
Immature male rats (Crl:CD(SD)Br) 22 to 24-day old were obtained from Charles-River, Inc. (St-Constant, Quebec, Canada) and housed up to 5 per cage in plastic bins in a temperature (23±1° C.)— and light (12 h light/day, lights on at 7h15)— controlled environment. The rats were fed rodent chow and tap water ad libitum. The day following their arrival, the animals were orchidectomized (CX) under Isoflurane anesthesia via scrotal route and randomly assigned to groups of 5 animals.
To evaluate the antiandrogenic activity, tested compounds were administered subcutaneously or orally once daily at a dose of 0.5 mg/animal for antiandrogenitic activity or 0.2 mg/animal for androgenic activity for 7 days (SD 1 to 7). Compounds were solubilized (when possible) in dimethylsulfoxide (DMSO, 10% final concentration) and administered as suspension in 0.4% methylcellulose. […] One group of animals received the antiandrogen Flutamide as reference. The animals were killed by cervical dislocation under isoflurane anesthesia on the 8th morning following castration. The ventral prostate and seminal vesicles were rapidly dissected and weighed.
3. Calculations and Statistical Analysis
W is the weight of the prostate, the seminal vesicle or levator ani.

[4] = Mus musculus, read-out: Shionogi Antiandrogenic Activity IC50, Table 3
[5] = sc, Table 3, s.c (marked in prostate cell), read-out: % Stimulation Lev.Ani
[6] = sc, Table 3, s.c (marked in prostate cell), read-out: % Stimulation SV
[7] = sc, Table 3, s.c, read-out: % Stimulation Prostate
[8] = po, Table 3, p.o (marked in prostate cell), read-out: % Stimulation Lev.Ani
[9] = po, Table 3, p.o (marked in prostate cell), read-out: % Stimulation SV
[10] = po, Table 3, p.o, read-out: % Stimulation Prostate
[11] = Table 3, s.c. or p.o (route not marked)

| Structure (SMILES) | Human Androgen Receptor Binding (%) RBA R1881 = 100 (Human Androgen Receptor) | % Inhibition Prostate ([2]; s.c) | change in vivo at 0.2 mg [3, 5] | change in vivo at 0.2 mg [3, 6] | change in vivo at 0.2 mg [3, 7] | Shionogi Antiandrogenic Activity IC50 ([1]; Table 3) | change in vivo at 0.2 mg [3, 8] | change in vivo at 0.2 mg [3, 9] | change in vivo at 0.2 mg [3, 10] | other results |
| --- | --- | --- | --- | --- | --- | --- | --- | --- | --- | --- |
| Cc1c(N2C(=O)C(C)(C)N(CCCOc3ccc(CNC(C)C)cc3)C2=S)ccc(C#N)c1Cl [EM-7198] | 44% | 15 s.c % | 182% | 106% | 65% |  |  |  |  | IC50 [1, 4]: 10 nM |
| Cc1c(N2C(=O)C(C)(C)N(CCCOc3ccc(CN(C)C)cc3)C2=S)ccc(C#N)c1Cl [EM-7298] | 61% | 36 s.c % | 103% | 29% | 33% |  |  |  |  | IC50 [1, 4]: 8.2 nM; % Inhibition Lev.Ani ([2]; s.c (marked in prostate cell)): 14% |
| Cc1cc(CN2CCOCC2)ccc1OCCCN1C(=S)N(c2ccc(C#N)c(Cl)c2C)C(=O)C1(C)C [EM-8255] | 76% | 17 s.c % | 80% | 31% | 32% | Partial agonist |  |  |  |  |
| Cc1c(N2C(=O)C(C)(C)N(CCCOc3ccc(S(C)(=O)=O)cc3)C2=S)ccc(C#N)c1Cl [EM-8260, 4-(3-{3-[4-(1-methylsulfonyl)-phenoxy]-propyl}-4,4-dimethyl-5-oxo-2-thioxo-imidazolidin-1-yl)-2-chloro-3-methyl-benzonitrile] | 17% |  |  |  |  | Partial agonist | 74% | 28% | 27% | % Inhibition Lev.Ani ([2]; p.o (marked in prostate cell)): 24%; % Inhibition SV ([2]; p.o (marked in prostate cell)): 54%; % Inhibition Prostate ([2]; p.o): 40 p.o % |
| CCS(=O)(=O)c1ccc(OCCCN2C(=S)N(c3ccc(C#N)c(Cl)c3C)C(=O)C2(C)C)cc1 [EM-8261] | 32% |  |  |  |  | Partial agonist | 82% | 26% | 41% | % Inhibition Lev.Ani ([2]; p.o (marked in prostate cell)): 8%; % Inhibition SV ([2]; p.o (marked in prostate cell)): 25%; % Inhibition Prostate ([2]; p.o): 38 p.o % |
| CCC(c1ccc(OCCCN2C(=S)N(c3ccc(C#N)c(Cl)c3C)C(=O)C2(C)C)cc1)N(C)C (centres unmarked) [EM-8345] | 68% |  |  |  |  | Partial agonist | 77% | 18% | 42% |  |
| Cc1c(N2C(=O)C(C)(C)N(CCCOc3ccc(-n4ccnc4)cc3)C2=S)ccc(C#N)c1Cl [EM-8346] | 125% |  |  |  |  | Partial agonist | 128% | 40% | 47% |  |
| CC(=O)Nc1ccc(OCCCN2C(=S)N(c3ccc(C#N)c(Cl)c3C)C(=O)C2(C)C)cc1 [EM-8362] | 66% |  |  |  |  | Partial agonist | 105% | 43% | 33% |  |
| Cc1c(N2C(=O)C(C)(C)N(CCCOc3ccc(S(=O)(=O)C(C)C)cc3)C2=S)ccc(C#N)c1Cl [EM-8363] | 52% |  |  |  |  | Partial agonist | 85% | 24% | 29% |  |
| C[C@]12CC[C@H]3[C@@H](CCC4=CC(=O)CC[C@@]43C)[C@@H]1CC[C@@H]2O [Testo, reference compound] |  |  |  |  |  |  |  |  |  | IC50 ([1]; Table 3, read-out: Shionogi Antiandrogenic Activity IC50): 23 to 107 nM; % Stimulation Lev.Ani [3, 11]: 171%; % Stimulation Prostate [3, 11]: 99%; % Stimulation SV [3, 11]: 115% |
